According to ChEMBL document CHEMBL4765473, “PF-07059013: A Noncovalent Modulator of Hemoglobin for Treatment of Sickle Cell Disease” (J Med Chem, 2021):
In brackets after ≈: the same amount, converted by molar mass. Activity calls are given as the source filed them. The rule behind the calls is not given here.

Columns and labels:
[1] = Modulation of HbS (unknown origin) assessed as stabilization of the oxy-state of hemoglobin by measuring conversion from oxyHb (R) to deoxyHb (T) pre-incubated for 1 hr and measured after 120 mins by oxygen dissociation assay; set-up: species or system Homo sapiens
[2] = Intrinsic clearance in human hepatocytes assessed per million cells; assay type: ADME, cell-based, Hepatocyte; details: read-out: CLH
[3] = Binding affinity to purified human cross-linked HbS by SPR analysis
[4] = Distribution coefficient, log D of the compound by shake flask method; assay type: physicochemical; details: octanol/water
[5] = target: T1, Voltage-gated inwardly rectifying potassium channel KCNH2 (Homo sapiens, UniProt Q12809); assay: Binding affinity to human ERG by dofetilide fluorescence polarization binding assay
[6] = Thermodynamic solubility of the compound; assay type: physicochemical; details: read-out: Therm_solubility
[7] = Kinetic solubility of the compound; assay type: physicochemical; details: read-out: Kinetic_solubility
Mus musculus [8] = assay: Binding to HbS in sickle Townes mouse at 30 to 900 mg/kg, po dosed via gavage measured after 0.5 to 24 hrs by Hemox-analyzer based assay; assay type: functional, organism-based; details: dose 30-900 mg/kg, time 0.5-24 hrs
[9] = Unbound fraction in human plasma; assay type: ADME, cell-free
[10] = Drug metabolism in human hepatocytes assessed formation of glucuronide metabolites; assay type: ADME, cell-based, Hepatocyte
[11] = Apparent permeability from apical to basolateral side in MDCK-MDR1 cells; assay type: ADME, cell-based, Canis lupus familiaris; details: dog
[12] = Drug metabolism in human hepatocytes assessed formation of acyl glucuronides metabolites; assay type: ADME, cell-based, Hepatocyte
[13] = Protein binding in human RBC assessed as unbound fraction at 1 mM; assay type: ADME, tissue-based, Erythrocyte; details: red blood cells (RBC)
[14] = target: T1, Voltage-gated inwardly rectifying potassium channel KCNH2; assay: Inhibition of human ERG by patch clamp assay
Cytochrome P450 3A4 = Cytochrome P450 3A4 (Homo sapiens, UniProt P08684); assay: Inhibition of CYP3A4 (unknown origin); assay type: ADME
Cytochrome P450 2C8 = target: T2, Cytochrome P450 2C8 (Homo sapiens, UniProt P10632); assay: Inhibition of CYP2C8 (unknown origin); assay type: ADME
T2 sequence (P10632 whole entry): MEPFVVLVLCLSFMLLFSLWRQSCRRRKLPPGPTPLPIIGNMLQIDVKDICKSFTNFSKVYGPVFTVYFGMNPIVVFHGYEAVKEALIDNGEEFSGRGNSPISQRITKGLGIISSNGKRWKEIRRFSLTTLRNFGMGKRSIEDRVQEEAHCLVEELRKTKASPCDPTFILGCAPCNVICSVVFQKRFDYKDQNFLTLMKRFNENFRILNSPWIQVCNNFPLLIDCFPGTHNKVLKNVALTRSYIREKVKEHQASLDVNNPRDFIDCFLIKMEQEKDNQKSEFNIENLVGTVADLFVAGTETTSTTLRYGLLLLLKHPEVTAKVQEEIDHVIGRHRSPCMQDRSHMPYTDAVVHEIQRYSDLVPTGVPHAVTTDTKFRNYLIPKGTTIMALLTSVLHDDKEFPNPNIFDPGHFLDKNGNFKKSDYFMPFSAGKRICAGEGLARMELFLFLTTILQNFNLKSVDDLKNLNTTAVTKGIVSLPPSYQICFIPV

Cytochrome P450 1A2 = target: T3, Cytochrome P450 1A2 (Homo sapiens, UniProt P05177); assay: Inhibition of CYP1A2 (unknown origin); assay type: ADME
T3 sequence (P05177 whole entry): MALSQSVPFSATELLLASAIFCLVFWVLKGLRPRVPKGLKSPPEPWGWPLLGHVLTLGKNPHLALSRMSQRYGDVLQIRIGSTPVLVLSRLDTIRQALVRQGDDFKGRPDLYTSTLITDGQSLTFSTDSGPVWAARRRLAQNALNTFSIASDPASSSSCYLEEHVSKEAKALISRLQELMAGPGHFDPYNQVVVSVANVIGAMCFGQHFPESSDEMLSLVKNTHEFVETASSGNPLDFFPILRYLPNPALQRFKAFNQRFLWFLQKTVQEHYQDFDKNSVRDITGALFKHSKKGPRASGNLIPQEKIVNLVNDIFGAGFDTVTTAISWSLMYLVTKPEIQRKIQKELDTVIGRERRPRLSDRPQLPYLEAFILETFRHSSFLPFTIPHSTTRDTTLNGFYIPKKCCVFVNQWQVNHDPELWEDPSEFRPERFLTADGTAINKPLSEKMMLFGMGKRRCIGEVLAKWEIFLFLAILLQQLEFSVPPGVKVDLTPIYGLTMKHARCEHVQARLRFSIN

Cytochrome P450 2D6 = Cytochrome P450 2D6 (Homo sapiens, UniProt P10635); assay: Inhibition of CYP2D6 (unknown origin); assay type: ADME
Cytochrome P450 2C9 = Cytochrome P450 2C9 (Homo sapiens, UniProt P11712); assay: Inhibition of CYP2C9 (unknown origin); assay type: ADME
[15] = Apparent permeability from basolateral to apical side in MDCK-MDR1 cells; assay type: ADME, cell-based, Canis lupus familiaris; details: dog
[16] = Protein binding in human blood; assay type: ADME, tissue-based
[17] = Apparent permeability in MDCK cells; assay type: ADME, cell-based, Canis lupus familiaris; details: dog
[18] = Drug metabolism in human hepatocytes assessed formation of acyl migration products; assay type: ADME, cell-based, Hepatocyte
[19] = Half life in human hepatocytes by NMR analysis; assay type: ADME, cell-based, Hepatocyte
[20] = Intrinsic clearance in mouse hepatocytes assessed per million cells; assay type: ADME, cell-based, Hepatocyte; details: read-out: CLH
CYP2D6 = CYP2D6 (Homo sapiens, UniProt P10635); assay: Inhibition of CYP2D6 (unknown origin) at 3 uM relative to control; assay type: ADME
CYP1A2 = target: T4, CYP1A2 (Homo sapiens, UniProt P05177); assay: Inhibition of CYP1A2 (unknown origin) at 3 uM relative to control; assay type: ADME
T4 sequence (P05177 whole entry): T3 sequence (P05177 whole entry)

CYP3A4 = CYP3A4 (Homo sapiens, UniProt P08684); assay: Inhibition of CYP3A4 (unknown origin) at 3 uM relative to control; assay type: ADME
Homo sapiens [21] = organism: Homo sapiens; assay: Binding affinity to HbS (unknown origin) by ITC analysis; details: filed as modulator
CYP2C9 = CYP2C9 (Homo sapiens, UniProt P11712); assay: Inhibition of CYP2C9 (unknown origin) at 3 uM relative to control; assay type: ADME
CYP2C8 = target: T5, CYP2C8 (Homo sapiens, UniProt P10632); assay: Inhibition of CYP2C8 (unknown origin) at 3 uM relative to control; assay type: ADME
T5 sequence (P10632 whole entry): T2 sequence (P10632 whole entry)

Homo sapiens [22] = organism: Homo sapiens; assay: Binding affinity to HbS tetramer (unknown origin) by ESI-MS analysis; details: filed as modulator
Mus musculus [23] = assay: Binding to HbS in sickle Townes mouse at 10 to 490 mg/kg, po dosed via gavage measured after 0.5 to 24 hrs by Hemox-analyzer based assay; assay type: functional, organism-based; details: dose 10-490 mg/kg, time 0.5-24 hrs
[24] = Modulation activity at HbS in sickle Townes mouse assessed as decrease in RBC sickling at 200 mg/kg, po BID for 15 days dosed via gavage by Hemox-analyzer based assay; assay type: functional; set-up: scale not given: the % may be the effect or the level left; details: time 15 day

T1 sequence (Q12809 whole entry): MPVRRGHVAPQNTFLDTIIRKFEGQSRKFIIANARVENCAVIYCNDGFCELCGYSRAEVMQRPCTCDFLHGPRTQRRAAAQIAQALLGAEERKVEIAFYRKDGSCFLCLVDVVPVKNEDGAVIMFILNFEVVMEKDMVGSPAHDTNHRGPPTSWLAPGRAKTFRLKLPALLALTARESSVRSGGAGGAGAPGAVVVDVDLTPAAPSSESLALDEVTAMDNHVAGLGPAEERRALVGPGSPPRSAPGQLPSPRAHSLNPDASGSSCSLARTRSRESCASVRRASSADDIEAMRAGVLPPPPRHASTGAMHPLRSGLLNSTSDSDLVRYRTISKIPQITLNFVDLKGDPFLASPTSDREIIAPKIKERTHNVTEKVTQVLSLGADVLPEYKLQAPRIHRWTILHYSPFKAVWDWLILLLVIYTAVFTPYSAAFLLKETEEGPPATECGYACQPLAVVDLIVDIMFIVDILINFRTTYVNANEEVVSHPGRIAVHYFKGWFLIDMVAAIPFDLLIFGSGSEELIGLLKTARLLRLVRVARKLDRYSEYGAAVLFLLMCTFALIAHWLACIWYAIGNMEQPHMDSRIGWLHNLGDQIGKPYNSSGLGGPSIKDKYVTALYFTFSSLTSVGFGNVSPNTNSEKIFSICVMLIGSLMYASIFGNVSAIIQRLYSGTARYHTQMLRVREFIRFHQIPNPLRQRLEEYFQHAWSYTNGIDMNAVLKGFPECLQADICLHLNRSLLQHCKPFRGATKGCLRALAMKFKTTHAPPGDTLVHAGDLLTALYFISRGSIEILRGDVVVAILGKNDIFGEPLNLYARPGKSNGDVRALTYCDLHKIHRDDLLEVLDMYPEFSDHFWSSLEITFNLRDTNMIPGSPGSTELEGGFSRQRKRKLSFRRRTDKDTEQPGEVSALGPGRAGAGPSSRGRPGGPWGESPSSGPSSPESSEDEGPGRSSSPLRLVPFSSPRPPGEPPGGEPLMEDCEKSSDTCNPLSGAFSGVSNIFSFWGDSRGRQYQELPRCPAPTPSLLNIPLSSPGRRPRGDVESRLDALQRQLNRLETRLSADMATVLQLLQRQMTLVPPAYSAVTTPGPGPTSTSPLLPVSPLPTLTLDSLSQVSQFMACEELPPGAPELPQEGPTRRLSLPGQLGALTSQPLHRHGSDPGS
Chain of Cytochrome P450 3A4 (P08684 whole entry): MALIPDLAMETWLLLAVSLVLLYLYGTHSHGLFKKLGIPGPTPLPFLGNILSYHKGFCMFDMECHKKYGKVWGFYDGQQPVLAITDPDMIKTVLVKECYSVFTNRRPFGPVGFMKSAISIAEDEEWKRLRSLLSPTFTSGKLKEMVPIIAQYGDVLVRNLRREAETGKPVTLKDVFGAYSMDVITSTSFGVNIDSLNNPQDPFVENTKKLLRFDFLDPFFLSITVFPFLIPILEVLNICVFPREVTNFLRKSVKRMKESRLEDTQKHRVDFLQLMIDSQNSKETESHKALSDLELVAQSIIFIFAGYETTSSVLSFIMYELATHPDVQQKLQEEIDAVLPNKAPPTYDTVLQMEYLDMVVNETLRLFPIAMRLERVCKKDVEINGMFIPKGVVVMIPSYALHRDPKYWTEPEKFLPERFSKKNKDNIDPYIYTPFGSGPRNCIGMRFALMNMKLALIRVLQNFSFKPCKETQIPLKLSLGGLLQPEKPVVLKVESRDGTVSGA
Chain of Cytochrome P450 2D6 (P10635 whole entry): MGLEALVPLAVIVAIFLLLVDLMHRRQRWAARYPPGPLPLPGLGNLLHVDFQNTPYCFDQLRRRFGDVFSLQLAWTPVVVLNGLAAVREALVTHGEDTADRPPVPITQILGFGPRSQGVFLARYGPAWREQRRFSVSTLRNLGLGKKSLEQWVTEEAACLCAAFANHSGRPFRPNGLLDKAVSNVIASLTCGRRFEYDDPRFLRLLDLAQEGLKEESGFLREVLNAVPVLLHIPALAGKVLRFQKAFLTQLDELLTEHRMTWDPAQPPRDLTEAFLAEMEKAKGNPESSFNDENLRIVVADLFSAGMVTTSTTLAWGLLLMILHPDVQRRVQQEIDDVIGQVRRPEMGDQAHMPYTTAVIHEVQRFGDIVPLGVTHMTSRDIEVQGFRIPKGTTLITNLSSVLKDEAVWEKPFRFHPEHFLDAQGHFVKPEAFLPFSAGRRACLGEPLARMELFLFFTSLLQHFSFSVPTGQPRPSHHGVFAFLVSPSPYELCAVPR
Chain of Cytochrome P450 2C9 (P11712 whole entry): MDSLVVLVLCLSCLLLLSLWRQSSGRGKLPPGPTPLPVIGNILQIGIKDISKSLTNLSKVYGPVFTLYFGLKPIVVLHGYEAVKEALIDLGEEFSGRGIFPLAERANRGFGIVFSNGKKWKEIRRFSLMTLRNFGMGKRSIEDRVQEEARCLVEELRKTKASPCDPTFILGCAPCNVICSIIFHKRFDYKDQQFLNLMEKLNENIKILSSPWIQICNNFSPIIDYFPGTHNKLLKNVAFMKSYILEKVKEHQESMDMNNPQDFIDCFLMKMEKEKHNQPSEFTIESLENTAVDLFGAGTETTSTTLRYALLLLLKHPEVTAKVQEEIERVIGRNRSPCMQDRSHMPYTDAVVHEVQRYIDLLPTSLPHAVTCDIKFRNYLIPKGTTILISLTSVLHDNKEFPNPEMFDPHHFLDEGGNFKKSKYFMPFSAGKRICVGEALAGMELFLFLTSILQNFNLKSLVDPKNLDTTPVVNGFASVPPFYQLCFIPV
Chain of CYP3A4 (P08684 whole entry): as the sequence (P08684 whole entry) above
Chain of CYP2D6 (P10635 whole entry): as the sequence (P10635 whole entry) above
Chain of CYP2C9 (P11712 whole entry): as the sequence (P11712 whole entry) above

IC50 [1] [µM]	hepatocyte CLint [2] [µL/min/1e6 cells]	Kd [3] [µM]	logD [4]	SMILES	Ki [5] [µM]	further results
5.5	24	0.381	4.3	C[C@H](Oc1cc2cc(C#N)ccc2nc1N)c1cc(F)c(F)cc1-n1cccn1	19	
3.9	4	0.068	2.1	C[C@H](Oc1cc2cc(C(N)=O)cc(F)c2nc1N)c1ncc(F)cc1-n1cccn1	> 40	solubility thermodynamic [6]: 0.6 µg/mL (≈ 1.46 µM); solubility kinetic [7]: 0.5 µg/mL (≈ 1.22 µM)
		> 300		Cc1n[nH]cc1-c1cnc(N)c(O[C@H](C)c2cc(F)ccc2-n2cccn2)c1		
11	13	0.402	3	C[C@H](Oc1cc2cc(C(N)=O)ccc2nc1N)c1cc(F)ccc1-n1cccn1	24	
4.6	< 3	0.037	1	C[C@H](Oc1cc2cc(F)cc(F)c2nc1N)c1cc(C(=O)O)ccc1-n1cccn1	40	PPB (Mus musculus [8]): Dose-dependent effect; fraction unbound [9]: 0.027; Drug metabolism [10]: Metabolite_Detected; Papp A→B [11]: 0.4 ×10⁻⁶ cm/s; Drug metabolism [12]: Metabolite_Detected; fraction unbound at 1000 µM [13]: 0.000577; IC50 [14]: 144 µM; IC50 (Cytochrome P450 3A4): > 30 µM; IC50 (Cytochrome P450 2C8): 17.3 µM; IC50 (Cytochrome P450 1A2): > 30 µM; IC50 (Cytochrome P450 2D6): > 30 µM; IC50 (Cytochrome P450 2C9): 20.6 µM; Papp B→A [15]: 4 ×10⁻⁶ cm/s; PB [16]: Dose-dependent effect; Papp [17]: 3 ×10⁻⁶ cm/s
4.3	4	0.059	2.1	C[C@H](Oc1cc2cc(C(N)=O)ccc2nc1N)c1cc2c(cnn2CCO)cc1-n1cccn1	> 40	
				C=CCOC(=O)[C@H]1O[C@@H](OC(=O)c2ccc(-n3cccn3)c([C@H](C)Oc3cc4cc(F)cc(F)c4nc3N)c2)[C@H](O)[C@@H](O)[C@@H]1O		Drug metabolism [18]: Metabolite_Detected; half-life [19]: 2.18 h
5.4	< 2	0.183	1.9	C[C@H](Oc1cc2cc(C(N)=O)ccc2nc1N)c1ncc(F)cc1-n1cccn1	34	solubility thermodynamic [6]: 5.3 µg/mL (≈ 13.5 µM); solubility kinetic [7]: 28.5 µg/mL (≈ 72.6 µM)
4.9	4	0.1	0.9	C[C@H](Oc1cc2cc(F)ccc2nc1N)c1cc(C(=O)O)ccc1-n1cccn1	> 40	
5.7	57	0.115	4.1	C[C@H](Oc1cc2cc(F)ccc2nc1N)c1cc(F)c(F)cc1-n1cccn1	4.4	
3.7	21	0.009	0.5	C[C@H](Oc1cc2cc(F)ccc2nc1N)c1cc2c(cnn2CC(=O)O)cc1-n1cccn1	> 40	
17		1.5	4	C[C@H](Oc1cc2ccccc2nc1N)c1cc(F)ccc1-n1cccn1		
5.5	< 3	0.036	2.7	C[C@H](Oc1cc2cc(C(N)=O)ccc2nc1N)c1cc2[nH]ncc2cc1-n1cccn1	13	Papp [17]: 1.4 ×10⁻⁶ cm/s
6.1	40	0.322	3.8	C[C@H](Oc1cc2cc(C#N)ccc2nc1N)c1cc(F)ccc1-n1cccn1	> 40	
21	23	3.6	3.2	Cc1n[nH]cc1-c1cnc(N)c(O[C@@H](C)c2cc(F)ccc2-n2cccn2)c1	3.8	hepatocyte CLint [20]: 104 µL/min/1e6 cells; inhibition at 3 µM (CYP2D6): < 50%; inhibition at 3 µM (CYP1A2): < 50%; inhibition at 3 µM (CYP3A4): < 50%; Activity (Homo sapiens [21]): Active; Papp [17]: 24 ×10⁻⁶ cm/s; inhibition at 3 µM (CYP2C9): < 50%; inhibition at 3 µM (CYP2C8): < 50%
				Cc1n[nH]cc1-c1cnc(N)c(OC(C)c2cc(F)ccc2-n2cccn2)c1 (racemic)		Activity (Homo sapiens [22]): Active
4.8	18	0.034	2.4	C[C@H](Oc1cc2cc(F)ccc2nc1N)c1[nH]c(=O)ccc1-n1cccn1 [PF-07059013]	> 36	fraction unbound [9]: 0.162; Drug metabolism [10]: Metabolite_Detected; Papp A→B [11]: 0.1 ×10⁻⁶ cm/s; fraction unbound at 1000 µM [13]: 0.000598; PPB (Mus musculus [23]): Dose-dependent effect; IC50 [14]: 43 µM; IC50 (Cytochrome P450 3A4): > 30 µM; IC50 (Cytochrome P450 2C8): 21.8 µM; IC50 (Cytochrome P450 1A2): 24.4 µM; IC50 (Cytochrome P450 2D6): > 30 µM; IC50 (Cytochrome P450 2C9): 24.9 µM; Activity [24]: 37.8%; Papp B→A [15]: 14 ×10⁻⁶ cm/s; PB [16]: Dose-dependent effect; Papp [17]: 20 ×10⁻⁶ cm/s
4.3	17	0.014	2.6	C[C@H](Oc1cc2cc(F)cc(F)c2nc1N)c1[nH]c(=O)ccc1-n1cccn1	63	
5.4	14	0.122	3.2	C[C@H](Oc1cc2cc(C(N)=O)ccc2nc1N)c1cc(F)c(F)cc1-n1cccn1	4.1	
5.3	3	0.142	1.8	C[C@H](Oc1cc2cc(C(N)=O)ccc2nc1N)c1nc(OCCO)ccc1-n1cccn1		
4.5		0.02	3.3	C[C@H](Oc1cc2cc(F)ccc2nc1N)c1cc2c(cnn2CCO)cc1-n1cccn1	8.3	
4.5	< 3	0.064	1.1	C[C@H](Oc1cc2c(F)ccc(F)c2nc1N)c1cc(C(=O)O)ccc1-n1cccn1		
